Patent publication US9522886B2, “Pyridine derivatives” (Hoffmann-La Roche Inc., priority 2012, dated 2016)

What was measured:
human CB1 receptors = human CB1 receptors (Homo sapiens (Human), UniProt P21554); test: cAMP assay, CHO cells expressing human CB1 receptors; type: cell-based; conditions: functional cAMP assay, CHO cells expressing human CB1; read-out: human CB1 EC50
Procedure: (§1) CHO cells expressing human CB1 or CB2 receptors are seeded 17-24 hours prior to the experiment 50.000 cells per well in a black 96 well plate with flat clear bottom (Corning Costar #3904) in DMEM (Invitrogen No. 31331), 1×HT supplement, with 10% fetal calf serum and incubated at 5% CO2 and 37° C. in a humidified incubator. The growth medium was exchanged with Krebs Ringer Bicarbonate buffer with 1 mM IBMX and incubated at 30° C. for 30 min. Compounds were added to a final assay volume of 100 μl and incubated for 30 min at 30° C. Using the cAMP-Nano-TRF detection kit the assay (Roche Diagnostics) was stopped by the addition of 50 μl lysis reagent (Tris, NaCl, 1.5% Triton X100, 2.5% NP40, 10% NaN3) and 50 μl detection solutions (20 μM mAb Alexa700-cAMP 1:1, and 48 μM Ruthenium-2-AHA-cAMP) and shaken for 2 h at room temperature. The time-resolved energy transfer is measured by a TRF reader (Evotec Technologies GmbH), equipped with a ND:YAG laser as excitation source. The plate is measured twice with the excitation at 355 nm and at the emission with a delay of 100 ns and a gate of 100 ns, total exposure time 10 s at 730 (bandwidth 30 nm) or 645 nm (bandwidth 75 nm), respectively.
(§2) EC50 values were determined using Activity Base analysis (ID Business Solution, Limited).

human CB2 receptors = human CB2 receptors (Homo sapiens (Human), UniProt P34972); test: cAMP assay, CHO cells expressing human CB2 receptors; type: cell-based; conditions: functional cAMP assay, CHO cells expressing human CB2; read-out: human CB2 EC50
Procedure: as §1, §2

human CB2 receptors, sequence (P34972 whole entry): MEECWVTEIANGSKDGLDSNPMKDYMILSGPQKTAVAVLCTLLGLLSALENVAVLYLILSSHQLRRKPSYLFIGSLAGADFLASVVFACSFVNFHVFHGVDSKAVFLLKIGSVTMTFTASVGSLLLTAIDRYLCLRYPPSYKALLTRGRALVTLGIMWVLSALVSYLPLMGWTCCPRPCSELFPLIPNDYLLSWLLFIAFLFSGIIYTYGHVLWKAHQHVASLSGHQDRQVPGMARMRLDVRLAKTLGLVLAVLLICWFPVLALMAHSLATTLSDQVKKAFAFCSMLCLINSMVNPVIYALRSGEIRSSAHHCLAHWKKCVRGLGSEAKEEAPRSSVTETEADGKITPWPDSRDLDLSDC
human CB1 receptors, sequence (P21554 whole entry): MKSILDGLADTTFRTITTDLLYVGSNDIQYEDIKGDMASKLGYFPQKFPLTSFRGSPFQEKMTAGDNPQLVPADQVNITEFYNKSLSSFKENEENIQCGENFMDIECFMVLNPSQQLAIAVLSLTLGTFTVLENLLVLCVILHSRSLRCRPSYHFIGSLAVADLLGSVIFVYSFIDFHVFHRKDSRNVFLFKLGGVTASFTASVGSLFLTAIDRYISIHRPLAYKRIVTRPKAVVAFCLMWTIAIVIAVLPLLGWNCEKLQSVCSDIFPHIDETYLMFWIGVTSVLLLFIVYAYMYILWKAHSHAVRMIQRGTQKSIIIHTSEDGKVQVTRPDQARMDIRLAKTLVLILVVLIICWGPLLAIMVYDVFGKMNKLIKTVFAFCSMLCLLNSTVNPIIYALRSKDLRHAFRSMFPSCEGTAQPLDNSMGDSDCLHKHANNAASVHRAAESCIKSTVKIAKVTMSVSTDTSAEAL

Compound	EC50 (human CB1 receptors) [nM]	EC50 (human CB2 receptors) [nM]
NC(=O)CC1(NC(=O)c2ccc(N3CC(F)(F)C3)c(OCC3CC3)n2)COC1 [Example 26, 6-Cyclopropylmethoxy-5-(3,3-difluoro-azetidin-1-yl)-pyridine-2-carboxylic acid (3-carbamoylmethyl-oxetan-3-yl)-amide]	> 10000	5.65
CC(C)(C)[C@@H](CC(N)=O)NC(=O)c1ccc(C2CC2)c(OCC2CC2)n1 [Example 29, 5-Cyclopropyl-6-cyclopropylmethoxy-pyridine-2-carboxylic acid ((R)-1-carbamoylmethyl-2,2-dimethyl-propyl)-amide]	> 10000	23.2
NC(=O)CC(NC(=O)c1ccc(C2CC2)c(OCC2CC2)n1)C1CCOCC1 (stereo not drawn) [Example 30, 5-Cyclopropyl-6-cyclopropylmethoxy-pyridine-2-carboxylic acid [2-carbamoyl-1-(tetrahydro-pyran-4-yl)-ethyl]-amide]	> 10000	8.3
CC(Oc1nc(C(=O)NC2(CC(N)=O)COC2)ccc1C1CC1)C(F)(F)F (stereo not drawn) [Example 33, 5-Cyclopropyl-6-(2,2,2-trifluoro-1-methyl-ethoxy)-pyridine-2-carboxylic acid (3-carbamoylmethyl-oxetan-3-yl)-amide]	> 10000	145
CC(C)(C)[C@H](CC(N)=O)NC(=O)c1ccc(C2CC2)c(OCC2CC2)n1 [Example 35, 5-Cyclopropyl-6-cyclopropylmethoxy-pyridine-2-carboxylic acid ((S)-1-carbamoylmethyl-2,2-dimethyl-propyl)-amide]	209	0.6
CC(C)CS(=O)(=O)c1nc(C(=O)NC2(CC(N)=O)COC2)ccc1C1CC1 [Example 36, 5-Cyclopropyl-6-(2-methyl-propane-1-sulfonyl)-pyridine-2-carboxylic acid (3-carbamoylmethyl-oxetan-3-yl)-amide]	> 10000	255
CNC(=O)CC1(NC(=O)c2ccc(N3CC(F)(F)C3)c(OCC3CC3)n2)COC1 [Example 37, 6-Cyclopropylmethoxy-5-(3,3-difluoro-azetidin-1-yl)-pyridine-2-carboxylic acid (3-methylcarbamoylmethyl-oxetan-3-yl)-amide]	> 10000	363
CNC(=O)CC1(NC(=O)c2ccc(C3CC3)c(OCC3CC3)n2)COC1 [Example 38, 5-Cyclopropyl-6-cyclopropylmethoxy-pyridine-2-carboxylic acid (3-methylcarbamoylmethyl-oxetan-3-yl)-amide]	> 10000	101
CNC(=O)CC1(NC(=O)c2ccc(C(F)(F)F)c(OCC3CC3)n2)COC1 [Example 39, 6-Cyclopropylmethoxy-5-trifluoromethyl-pyridine-2-carboxylic acid (3-methylcarbamoylmethyl-oxetan-3-yl)-amide]	> 10000	599
CN(C)C(=O)CC1(NC(=O)c2ccc(C3CC3)c(OCC3CC3)n2)COC1 [Example 40, 5-Cyclopropyl-6-cyclopropylmethoxy-pyridine-2-carboxylic acid (3-dimethylcarbamoylmethyl-oxetan-3-yl)-amide]	> 10000	345
CN(C)C(=O)CC1(NC(=O)c2ccc(N3CC(F)(F)C3)c(OCC3CC3)n2)COC1 [Example 41, 6-Cyclopropylmethoxy-5-(3,3-difluoro-azetidin-1-yl)-pyridine-2-carboxylic acid (3-dimethylcarbamoylmethyl-oxetan-3-yl)-amide]	> 10000	298
CN(C)C(=O)CC1(NC(=O)c2ccc(C(F)(F)F)c(OCC3CC3)n2)COC1 [Example 42, 6-Cyclopropylmethoxy-5-trifluoromethyl-pyridine-2-carboxylic acid (3-dimethylcarbamoylmethyl-oxetan-3-yl)-amide]	> 10000	967
NC(=O)C[C@@H](NC(=O)c1ccc(C2CC2)c(OCC2CC2)n1)c1cccc(Cl)c1 [Example 43, 5-Cyclopropyl-6-cyclopropylmethoxy-pyridine-2-carboxylic acid [(R)-2-carbamoyl-1-(3-chloro-phenyl)-ethyl]-amide]	> 10000	105
CC(C)[S+]([O-])c1nc(C(=O)NC2(CC(N)=O)COC2)ccc1Br (stereo not drawn) [Example 44, 5-Bromo-6-(propane-2-sulfinyl)-pyridine-2-carboxylic acid (3-carbamoylmethyl-oxetan-3-yl)-amide]	> 10000	413
COC(=O)CC1(NC(=O)c2ccc(C3CC3)c(OCC3CC3)n2)CCN(C(=O)OC(C)(C)C)CC1 [Example 45, 4-[(5-Cyclopropyl-6-cyclopropylmethoxy-pyridine-2-carbonyl)-amino]-4-methoxycarbonylmethyl-piperidine-1-carboxylic acid tert-butyl ester]	> 10000	237
NC(=O)CC1(NC(=O)c2ccc(OC(F)(F)F)c(OCC3CC3)n2)COC1 [Example 46, 6-Cyclopropylmethoxy-5-trifluoromethoxy-pyridine-2-carboxylic acid (3-carbamoylmethyl-oxetan-3-yl)-amide]	> 10000	31.4
NC(=O)CC1(NC(=O)c2ccc(OCC3CC3)c(Cl)n2)COC1 [Example 47, 6-Chloro-5-cyclopropylmethoxy-pyridine-2-carboxylic acid (3-carbamoylmethyl-oxetan-3-yl)-amide]	> 10000	793
CC(C)(CC(N)=O)NC(=O)c1ccc(N2CC(F)(F)C2)c(OCC2CC2)n1 [Example 48, 6-Cyclopropylmethoxy-5-(3,3-difluoro-azetidin-1-yl)-pyridine-2-carboxylic acid (2-carbamoyl-1,1-dimethyl-ethyl)-amide]	> 10000	9.2
NC(=O)CC1(NC(=O)c2ccc(C3CC3)c(OCC(F)(F)C(F)(F)F)n2)COC1 [Example 49, 5-Cyclopropyl-6-(2,2,3,3,3-pentafluoro-propoxy)-pyridine-2-carboxylic acid (3-carbamoylmethyl-oxetan-3-yl)-amide]	> 10000	12.7
COC(=O)CC1(NC(=O)c2ccc(N3CC(F)(F)C3)c(OCC3CC3)n2)CNC(=O)C1 (stereo not drawn) [Example 50, (3-{[6-Cyclopropylmethoxy-5-(3,3-difluoro-azetidin-1-yl)-pyridine-2-carbonyl]-amino}-5-oxo-pyrrolidin-3-yl)-acetic acid methyl ester]	> 10000	423
CCOC(=O)CC1(NC(=O)c2ccc(N3CC(F)(F)C3)c(OCC3CC3)n2)CS(=O)(=O)C1 [Example 51, (3-{[6-Cyclopropylmethoxy-5-(3,3-difluoro-azetidin-1-yl)-pyridine-2-carbonyl]-amino}-1,1-dioxo-1λ6-thietan-3-yl)-acetic acid ethyl ester]	> 10000	57
COC(=O)CC1(NC(=O)c2ccc(N3CC(F)(F)C3)c(OCC3CC3)n2)CCOCC1 [Example 52, (4-{[6-Cyclopropylmethoxy-5-(3,3-difluoro-azetidin-1-yl)-pyridine-2-carbonyl]-amino}-tetrahydro-pyran-4-yl)-acetic acid methyl ester]	> 10000	74.9
NC(=O)CC1(NC(=O)c2ccc(N3CC(F)(F)C3)c(OCC3CC3)n2)CNC(=O)C1 (stereo not drawn) [Example 54, 6-Cyclopropylmethoxy-5-(3,3-difluoro-azetidin-1-yl)-pyridine-2-carboxylic acid (3-carbamoylmethyl-5-oxo-pyrrolidin-3-yl)-amide]	> 10000	55
NC(=O)CC(NC(=O)c1ccc(N2CC(F)(F)C2)c(OCC2CC2)n1)C(F)(F)F (stereo not drawn) [Example 55, 6-Cyclopropylmethoxy-5-(3,3-difluoro-azetidin-1-yl)-pyridine-2-carboxylic acid (1-carbamoylmethyl-2,2,2-trifluoro-ethyl)-amide]	> 10000	3
O=C(O)CC1(NC(=O)c2ccc(N3CC(F)(F)C3)c(OCC3CC3)n2)CS(=O)(=O)C1 [Example 56, (3-{[6-Cyclopropylmethoxy-5-(3,3-difluoro-azetidin-1-yl)-pyridine-2-carbonyl]-amino}-1,1-dioxo-1λ6-thietan-3-yl)-acetic acid]	> 10000	3
O=C(O)CC1(NC(=O)c2ccc(N3CC(F)(F)C3)c(OCC3CC3)n2)CCOCC1 [Example 57, (4-{[6-Cyclopropylmethoxy-5-(3,3-difluoro-azetidin-1-yl)-pyridine-2-carbonyl]-amino}-tetrahydro-pyran-4-yl)-acetic acid]	> 10000	3
NC(=O)CC1(NC(=O)c2ccc(N3CC(F)(F)C3)c(OCC3CC3)n2)CCOCC1 [Example 60, 6-Cyclopropylmethoxy-5-(3,3-difluoro-azetidin-1-yl)-pyridine-2-carboxylic acid (4-carbamoylmethyl-tetrahydro-pyran-4-yl)-amide]	> 10000	2.6
